Assay results published in patent publication EP4311580A1, “AMINOACID-FLUORIDE SALTS FOR MOUTH HYGIENE” (Schäfer, Rolf, priority 2022, dated 2024).
Where two headings read alike, the source gives them in different places.

Legend:
MG-63 osteoblast cells [1] = test: Time to confluence of MG-63 osteoblast cells in tissue culture with fluoride compounds in the medium; conditions: for Time to confluence / Time to confluence (days): compounds at 1400ppm fluoride in cell growth media, 5x10cm tissue culture flasks, control without fluoride 4-5 days; for effect on osteoblast cells in culture (lysis / influence on growth / toxicity) / inhibition of cell growth: MG-63 osteoblasts; for effect on osteoblast cells in culture (lysis / influence on growth / toxicity): 1400ppm fluoride, result in words; for inhibition of cell growth: 1400ppm fluoride concentration, relative to control
MG-63 osteoblast cells [2] = system: MG-63 osteoblast cells

Compound | Time to confluence (MG-63 osteoblast cells [1]) [days] | effect on osteoblast cells in culture (lysis / influence on growth / toxicity) (MG-63 osteoblast cells [1]) | other results
CCOC(=O)[C@H](C)N.F.N [Alanine-O-ethylester-ammoniumfluoride] | 5 to 6 |  | 
CCCCCCCCC=CCCCCCCCCN.F [Dectaflur, 9-octadecenylamine-hydrofluoride, reference compound] |  | lysing (dissolving the membrane) osteoblast cells | Time to confluence (days) (MG-63 osteoblast cells [1]): cell lysis
F.F.N.N.N[C@@H](Cc1c[nH]cn1)C(=O)O [Histidine-ammonium-difluoride] | 7 to 8 |  | 
CCOC(=O)[C@@H](N)CCCCN [Lysine-O-ethylester-ε-ammoniumdifluoride] |  |  | Time to confluence (MG-63 osteoblast cells [2]): 5 to 6 days
NCCCCC(N)C(=O)O (stereo not shown) [Lysine-ε-ammonium-fluoride] |  | no influence of growth on osteoblasts | Time to confluence (MG-63 osteoblast cells [2]): 4 to 5 days; inhibition of cell growth (MG-63 osteoblast cells [1]): no inhibition at all
CCCCCCCCCCCCCCCCCCN(CCO)CCCN(CCO)CCO [Olaflur, reference compound] |  | lysing (dissolving the membrane) osteoblast cells | Time to confluence (days) (MG-63 osteoblast cells [1]): cell lysis
CCCCCCCCCCCCOS(=O)(=O)[O-].[Na+] [Sodium laurylsulfate (SDS), Sodium laurylsulfate, reference compound] |  | lysing (dissolving the membrane) osteoblast cells | Time to confluence (days) (MG-63 osteoblast cells [2]): cell lysis
NC(Cc1c[nH]c2ccccc12)C(=O)O (stereo not shown) [Tryptophan-N-ammonium-mono-hydrofluoride] | 5 to 6 |  | 
CCOC(=O)[C@@H](N)Cc1c[nH]c2ccccc12 [Tryptophan-O-ethylester-N,N'-ammoniumdifluoride] | 8 to 9 |  | 
CCOC(=O)[C@@H](N)Cc1ccc(O)cc1.F.N [Tyrosine-O-ethylester-ammoniumfluoride] | 5 to 6 |  | 
Decalysine-ε-ammonium-decafluoride | 8 to 9 |  | inhibition of cell growth (MG-63 osteoblast cells [1]): 40-50%
Potassium fluoride [reference compound] |  |  | Time to confluence (MG-63 osteoblast cells [2]): 6 to 7 days
sodium fluoride [reference compound] |  |  | inhibition of cell growth (MG-63 osteoblast cells [1]): 20%
